Data: patent publication US6008190A, “Cobalt Schiff base compounds” (California Institute of Technology, priority 1995, dated 1999)
Like-named read-outs stand apart in the source and are kept apart here. Values belong to the molecule of their own block, whether it stands above or below them. Where a SMILES comes first, the peptide text is derived from it. [ ]: non-standard residue; d: D form.

What was measured:
Human a-thrombin = target: T1, Human a-thrombin (Homo sapiens, UniProt P00734); test: Thrombin inhibition assay, Spectrozyme TH hydrolysis at 406 nm; format: biochemical; settings: for activity relative to control / thrombin activity after incubation: 0.1 μM thrombin; for activity relative to control: 2.5 mM or similar concentration, 24 hours room temperature, Co(II) compound incubated under inert atmosphere then exposed to air; for thrombin activity after incubation: 2.5 mM, 24 hours at room temperature, assayed at 25° C.
T1 construct: Human a-thrombin and the assay agent Spectrozyme; purchased American Diagnostica (Greenwich, Conn.); host or cells: purified blood product
Description: FIG. 1 depicts the inhibition of thrombin. 3.07×10^-9 M thrombin at 25C was assayed using Spectrozyme TH (American Diagnostics), and the reaction followed at 406 nm using a Hewlett Packard HP8452A diode array spectrophotometer with temperature control. All assays were performed in 10 mM Tris, 10 mM HEPES, 0.1% polyethylene glycol, 0.5 M NaCl, pH 7.8. The Co(III) carboxypropyl(NH3)2 (labeled as Co(carboxypropyl)) was coupled to the active site directed peptide NH2 -GGGdFPR-CO-NIH SEQ ID NO: 1 (labeled as peptide dFPR). The observed inhibition greatly exceeded Co(carboxypropyl)(NH3) )2, the peptide, and Co(III)acacen(NH3)2 Cl (labeled as Co(acacen)).
N-(2-hydroxyethyl)piperazine-N'-2-ethanesulfonic acid (HEPES) was from J. T. Baker Phillipsburg, N.J.). Cobaltous acetate tetrahydrate was obtained from FM Science (Gibbstown, N.J.). Human a-thrombin and the assay agent Spectrozyme (H-D-hexahydrotyrosyl-L-alanyl-L-arginine-p-nitroaniline diacetate) were purchased from American Diagnostica (Greenwich, Conn.). Antithrombotic peptides were manufactured as amides by the Beckman Institute Biopolymer Synthesis group at Caltech using solid phase methods. […] was from Pharmacia (Uppsala, Sweden). Enzyme reactions were followed spectrophotometrically using a photodiode array spectrophotometer. Ultrafiltration materials were from Amicon (Beverly Mass.). HPLC used Vydac reverse phase columns. ^1 H NMR were obtained on a 300 MHz FT-NMR spectrometer. Solvents used include EM Omnisolve MeOH, Omnisolve […] passed over basic alumina to remove residual acid, Fluka (Bubcs. Switzerland) puriss. MeOH and dioxane, and Quantum Chemical (Tuscola, Ill.) absolute EtOH. Distilled water was prepared by a Barnistead Nanopure system. All other solvents were reagent trade.
Thrombin inhibition assay: As with any purified blood product, proper care was taken to avoid the transmission of blood-borne pathogens. Thrombin was taken as received (about 1 ml, at 30 μM in 0.75 M sodium chloride storage solution) and divided into 100 μL aliquots. Each aliquot was diluted to 10 ml. using clean. filtered (2 μm) aqueous 0.75 M NaCl and divided into 1 mL samples. Each sample was stored frozen at -80° C. until ready for use. The protein should not be stored at -20 ° C. as this is too close to the cutectic point for the thrombin-salt mixture and freeze-thaw cycling may damage the protein.
An assay buffer containing 10 mM Tris, 10 mM HEPES, 0.1% polyethylene glycol (PEG 8000) and 500 mM sodium chloride was prepared to pH 8. Following manufacturer's instructions, 5 ,μmole Spectrozyme TH was dissolved in 1.000 mL filtered nanopure water. A series of [Co^III (acacen)(NH3)2 ]Cl solutions was prepared by dissolving 16.6 mg of the compound in 0.75M NaCl and then diluting aliquots to a range of cobalt concentrations from 4.7 mM to 4.7 nM. Both of the purified materials were assayed.
Thrombin was preincubated with inhibitor in the kinetics buffer (total volume of thrombin, buffer, and inhibitor of […]) for the times specified in FIG. 1. After incubation, the substrate, spectrozyme TH was added (8 mL of 5 mM spectrozyme), and the thrombin-catalyzed hydrolysis rates were monitored at 406 nm. The final concentration of thrombin in the experiments was 3 nM, and the concentration of substrate was […]. The inhibitor concentrations are outlined in FIG. 1. The rates of hydrolysis were determined from the linear portion of the saturation-kinetics plots. The percent activity is determined by dividing the rate of spectrozyme hydrolysis with inhibitor by the rate of hydrolysis without inhibitor and multiplying by 100.
A vial of thrombin prepared as above was thawed in warm water. 100 μL aliquots were added to 100 μL, samples of the cobalt acacen solutions. One 100 μL aliquot of thrombin solution was diluted with 100 μL 0.75M NaCl to be used as a control. Samples were incubated as needed before assay. […]

Thermolysin [1] = target: T2, Thermolysin (Bacillus thermoproteolyticus, UniProt P00800); settings: incubated with 5 mM inhibitor, HEPES pH 7.0, thermolysin 5×10^-8 M, cobalt inhibitor 1.25×10^-5 M
T2 sequence (P00800 233-548): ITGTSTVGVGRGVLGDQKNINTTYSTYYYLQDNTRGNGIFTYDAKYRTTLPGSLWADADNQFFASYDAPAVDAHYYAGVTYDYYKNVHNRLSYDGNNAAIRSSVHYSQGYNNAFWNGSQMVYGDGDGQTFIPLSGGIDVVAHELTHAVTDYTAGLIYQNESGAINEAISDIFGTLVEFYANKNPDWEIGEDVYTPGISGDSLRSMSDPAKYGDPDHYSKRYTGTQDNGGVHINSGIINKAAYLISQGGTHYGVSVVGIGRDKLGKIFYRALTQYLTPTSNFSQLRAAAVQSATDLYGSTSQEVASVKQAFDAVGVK
Description: Thermolysin (2,500,000 units, Calbiochem) was dissolved in 20 mL of Tris buffer (pH 7.2, 0.1 M, 2.5 M NaBr. 0.01 M CaCI2) and stored at 4° C.; enzyme concentration was determined by using E1%^280 =7.65 and a molecular weight of 34,600. This solution was further purified using gel filtration chromatography on an FPLC Using a Superdex 75 column (Pharmacia) equilibrated with 0.1 M Tris, 0.1 M NaBr, 0.01 CaCI, pH 7.2. This stock solution was stored at 4C. N-[3-(2-furyl)acryloyl]glycyl L-leuciniamide (FAGLA) was obtained from Sigma as the thermolysin substrate. A stock solution of FAGLA (4.0 mM) was prepared by dissolving the substrate in dimethylforthamide (DMF) and diluting it with buffer to a final concentration of 0.1 M Tris, 0.1 NaBr and 10 mM CaCl2, pH 7.0 (final concentration of DMF was 2.5%; sec Feder et al., Biochem. 9:2784-2791 (1970)). For all assays, the concentration of enzyme and substrate was 50 nM and 2.0 mM respectively. The peptidase activity of thermolysin was determined by following the decrease in absorption at 346 due to the enzymatic hydrolysis of FAGLA. Initial velocities were determined for ≤10% of the reaction.
Thermolysin (2×10^-5 mol) was incubated with [Co(III)acacen(NH3)2 ]Cl (5 mM) in HEPES buffer (pH 7.0, 0.01 M, 0.005 M CaCl2).
Stock solution of thermolysin was mixed with the cobalt compound dissolved in 0.1 M Tris, 0.1 M NaBr, 0.01 CaCl2, pH 7.2 (run buffer) to yield a final enzyme concentration of […] and a cobalt concentration of 2.5 mM. These solutions were incubated at 25C or 37C for several hours along with a control lacking cobalt compound. Periodically […] aliquots of these solutions were assayed for residual enzyme activity by their addition to a cuvette contain […] of FAGLA stock Solution, and following the absorption decrease at 346 nm as described above. All enzyme assays were performed at 25C.

Thermolysin [2] = target: T2, Thermolysin
Description: The resulting solution was transferred into the Tris running buffer using a PD-10 column (Pharmacia), and was characterized.

[3] = Axial ligand exchange of ammonia for imidazole; format: physicochemical; settings: in water with excess imidazole, 25° C.
Description: In a preferred embodiment, the cobalt compounds find use in the inhibition of proteins and enzymes of tumor cells. As outlined above, Co(III) "acacen" compounds can exchange an axial ligand for a different one by a dissociative mechanism with the slow loss of one axial ligand to form a five coordinate intermediate, followed by binding to another suitable ligand. For most cobalt complexes, ligand exchange is a slow process because there is a large loss of ligand field stabilization energy when a ligand is removed from an octahedral d^6 complex (see Huheey et al., Inorganic Chemistry: Principles of Structure and Reactivity, 4th Ed. HarperCollins. N.Y., chapter 13). Generally, the exchange is slow; for example, [Co(III)(acacen)(NH3)2 ]Cl in water with excess imidazole exchanges ammonia for imidazole with a half-life under an hour at 25° C., with the rate of exchange increasing with temperature. However, reduction to cobalt(II) puts an electron into the antibonding dz2 orbital, labilizing the axial ligands. Typical one-electronic reduction potentials with irreversible loss of an axial ligand are around -360 mV vs NHE, (Darbieu et al., Transition Met. Chem., 7:149 (1982)). This property may be exploited as a "redox switch" to control the activity of the cobalt compound. […]

thrombin = thrombin (Homo sapiens, UniProt P00734); settings: initial estimate for two separate samples
Description: The [Co(III)acacen(NH3)2 ]CI experiments were repeated for a range of cobalt concentrations from 2.4 mM to 2.4 nM after at 12 hour incubation at 25C.

[4] = target: T3, Bovine carbonic anhydrase (Bos taurus, UniProt P00921); test: Inhibition of carbonic anhydrase, p-nitrophenylacetate substrate; format: biochemical; settings: for % inhibition of CA: inert atmosphere, Tris pH 8
T3 construct: purchased Calbiochem
T3 sequence (P00921 whole entry): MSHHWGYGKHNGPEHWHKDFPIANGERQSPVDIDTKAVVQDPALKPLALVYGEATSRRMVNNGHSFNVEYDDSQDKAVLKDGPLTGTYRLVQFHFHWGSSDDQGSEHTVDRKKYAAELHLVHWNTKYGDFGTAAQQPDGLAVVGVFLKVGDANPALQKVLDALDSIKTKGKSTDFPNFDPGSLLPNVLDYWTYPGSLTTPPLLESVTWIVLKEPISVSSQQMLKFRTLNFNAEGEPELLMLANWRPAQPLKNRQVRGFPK
Description: Bovine carbonic anhydrase (20 mg 6.7×10^-7 mol, Calbiochem) was dissolved in 0.5 mL Tris buffer (pH=8, 0.05 M). To this solution was added 30 mg of Co(II)hydroxypropyl acacen (30 mg, 7.6×10^-5 mol) dissolved in 0.5 mL of H2 O. This solution was incubated for 48 hours. The excess cobalt complex was separated from the protein using a PD-10 gel filtration column equilibrated with Tris buffer (pH 8, 0.05 M). This enzyme, which was incubated with the Co(III) complex, retained 100% of its activity.
Two samples of bovine carbonic anhydrase (30 mg, 1×10^-6 mol) were dissolved in 3 mL of degassed Tris buffer (pH 8, 0.05 M). To one of the samples was added Co(II)hydroxypropyl acacen (30 mg, 9×10^-5mol). The other sample of bovine carbonic anhydrase served as the control. The solutions were incubated under inert atmosphere (glove box) and a 1 mL aliquot was removed from each sample after 48 and 96 hours of incubation. The protein was then exposed to air and the excess Co(II)hydroxypropyl acacen separated from the protein using a PD-10 gel filtration column (Pharmacia) equilibrated with Tris buffer (pH 8, 0.05 M). The enzymatic activity of the protein was assayed using p-nitroplhenylacetate as the substrate (Pocker et al., Biochem. 6:668-678 (1967)).

Ki (Human a-thrombin): ~209 µM
Molecule: N=C(N)NCCC[C@H](NC(=O)[C@@H]1CCCN1C(=O)[C@@H](Cc1ccccc1)NC(=O)CNC(=O)CNC(=O)CN)C(N)=O [(Gly)3 dPhePioArg, reference compound] (H-GGG[dF]PR-NH2)

Molecule: CC([O-])=CC(C)=NCCN=C(C)C=C(C)[O-].N.N.[Cl-].[Co+3] [[Co(III)acacen(NH3)2]Cl]
activity relative to control (Human a-thrombin): 0% | thrombin activity after incubation (Human a-thrombin): completely inactive | lowest cobalt concentration found to inhibit the protein (Human a-thrombin; range 2.4 mM to 2.4 nM, 12 hour incubation at 25C): 24 µM | inhibition at lower incubation temperature (Human a-thrombin; range of cobalt concentrations, 3 hours at 5C, activity determined at 25C): Partial inhibition | % inhibition (Thermolysin [1]; 45 minutes incubation): 46.2% | % inhibition (Thermolysin [1]; 190 minutes incubation): 63.9% | % inhibition (Thermolysin [1]; 322 minutes incubation): 77.7% | loss of enzyme activity due to irreversible inactivation by the cobalt complex (Thermolysin [2]; 5 mM cobalt complex, 10 μM thermolysin, overnight at 25C in presence of 50 μM phosphoramidon, after removal of the inhibitor): no detectable loss of enzyme activity | cobalt complexes bound to the enzyme (Thermolysin [2]; active enzyme, active site protected by phosphoramidon): two | equivalents of the cobalt compound bound for each enzyme molecule (Thermolysin [2]; thermolysin completely inactivated by the cobalt complex): three | half-life of exchange of ammonia for imidazole [3]: under an hour | cobalts per enzyme (thrombin): 5-8

Molecule: CC(=O)C=C(C)NCCNC(C)=CC(C)=O [cobalt-free ligand, acetylacetone etlhylenediamine]
thrombin activity after incubation (Human a-thrombin): no effect

Molecule: Co(II)hydroxypropyl acacen
activity relative to control (Human a-thrombin): 42% | % inhibition of CA ([4]; 48 hours incubation): 33.8% | % inhibition of CA ([4]; 96 hours incubation): 43.2%

Molecule: [Co(III)hydroxypropylacacen(NH3)2 ]CH3 COO [Co(III) complex]
enzyme activity retained after incubation ([4]; incubated 48 hours, Tris buffer pH 8, excess complex removed by gel filtration): 100%
